Assay results published in the NIST ThermoML archive (doi:10.1016/j.jct.2011.02.008).

Assay: xn = mol fraction of the nth substance listed
Settings: Liquid, Vibrating tube method

COC(=O)c1ccccc1 [methyl benzoate] + C1CCCCC1
mass density [kg/m3]
Settings	x1 = 0.0985	x1 = 0.1963	x1 = 0.2939	x1 = 0.3942	x1 = 0.4955	x1 = 0.596	x1 = 0.6975	x1 = 0.7993	x1 = 0.8982
318.15 K, 30000 kPa	–	–	873.9	905.1	936.2	967.6	997.8	1026.6	1054.7
318.15 K, 35000 kPa	815.3	846.3	877.5	908.6	939.6	971	1001	1029.7	1057.8
318.15 K, 40000 kPa	818.8	849.9	880.9	912	942.9	974.2	1004.1	1032.7	1060.7
318.15 K, 45000 kPa	822.2	853.2	884.3	915.2	946.1	977.3	1007.1	1035.7	1063.6
318.15 K, 50000 kPa	825.5	856.5	887.5	918.4	949.2	980.3	1010.1	1038.6	1066.5
318.15 K, 55000 kPa	828.7	859.7	890.6	921.5	952.3	983.3	1013	1041.5	1069.3
318.15 K, 60000 kPa	831.6	862.5	893.4	924.3	955.1	986	1015.7	1044.1	1071.8
328.15 K, 100 kPa	776	807.7	839.6	871.6	903.6	935.6	966.7	996.3	1025.1
328.15 K, 1000 kPa	777	808.7	840.5	872.5	904.4	936.4	967.4	997	1025.8
328.15 K, 5000 kPa	781.2	812.7	844.5	876.3	908.1	939.9	970.6	1000.2	1028.9
328.15 K, 10000 kPa	786.2	817.6	849.2	880.4	912.3	944.1	974.8	1004	1032.6
328.15 K, 15000 kPa	790.7	822.1	853.6	885.1	916.5	948.1	978.6	1007.7	1036.2
328.15 K, 20000 kPa	795.2	826.5	857.8	889.2	920.5	951.9	982.3	1011.3	1039.7
328.15 K, 25000 kPa	799.4	830.6	861.8	893.1	924.3	955.6	985.9	1014.7	1043
328.15 K, 30000 kPa	803.4	834.5	865.7	896.9	928	959.2	989.4	1018.1	1046.3
328.15 K, 35000 kPa	807.3	838.3	869.4	900.5	931.5	962.7	992.7	1021.4	1049.4
328.15 K, 40000 kPa	811	842	873	904.1	935	966	996	1024.5	1052.5
328.15 K, 45000 kPa	814.6	845.5	876.5	907.5	938.3	969.3	999.1	1027.6	1055.5
328.15 K, 50000 kPa	818	848.9	879.8	910.8	941.5	972.5	1002.2	1030.7	1058.5
328.15 K, 55000 kPa	821.3	852.2	883.1	914	944.7	975.6	1005.3	1033.6	1061.4
328.15 K, 60000 kPa	824.3	855.5	886.1	916.9	947.6	978.3	1008	1036.3	1064.2
338.15 K, 100 kPa	766.2	798	829.9	861.9	893.9	926	957	986.6	1015.6
338.15 K, 1000 kPa	767.2	799	830.9	862.8	894.7	926.8	957.8	987.4	1016.3
338.15 K, 5000 kPa	771.8	803.4	835.1	866.9	898.7	930.5	961.3	990.8	1019.6
338.15 K, 10000 kPa	777	808.5	840	871.6	903.2	934.9	965.6	994.9	1023.5
338.15 K, 15000 kPa	782	813.3	844.7	876.2	907.6	939.2	969.6	998.8	1027.2
338.15 K, 20000 kPa	786.7	817.9	849.2	880.5	911.8	943.2	973.5	1002.5	1030.8
338.15 K, 25000 kPa	791.1	822.3	853.4	884.6	915.8	946.9	977.3	1006.2	1034.4
338.15 K, 30000 kPa	795.4	826.4	857.5	888.6	919.6	950.8	980.9	1009.7	1037.8
338.15 K, 35000 kPa	799.4	830.4	861.4	892.4	923.4	954.5	984.4	1013.1	1040.9
338.15 K, 40000 kPa	803.3	834.2	865.2	896.1	927	958	987.8	1016.4	1044.3
338.15 K, 45000 kPa	807	837.9	868.8	899.6	930.4	961.4	991.1	1019.6	1047.5
338.15 K, 50000 kPa	810.6	841.5	872.3	903.1	933.8	964.7	994.4	1022.8	1050.5
338.15 K, 55000 kPa	814.1	844.9	875.7	906.4	937.1	967.9	997.5	1025.8	1053.6
338.15 K, 60000 kPa	817.3	848.1	878.8	909.7	940.1	971.1	1000.4	1028.6	1056.3
348.15 K, 100 kPa	756.3	788.1	820	852.1	884.1	916.3	947.3	976.9	1005.9
348.15 K, 1000 kPa	757.4	789.2	820.9	853	885	917.1	948.1	977.7	1006.7
348.15 K, 5000 kPa	762.1	793.8	825.6	857.4	889.1	921.1	951.8	981.3	1010.1
348.15 K, 10000 kPa	767.9	799.3	830.9	862.4	894	925.8	956.3	985.5	1014.3
348.15 K, 15000 kPa	773.1	804.4	835.8	867.2	898.6	930.2	960.6	989.7	1018.2
348.15 K, 20000 kPa	778.1	809.3	840.5	871.8	903.1	934.4	964.7	993.6	1022
348.15 K, 25000 kPa	782.8	813.9	845	876.1	907.3	938.5	968.7	997.5	1025.7
348.15 K, 30000 kPa	787.2	818.2	849.3	880.3	911.3	942.4	972.5	1001.1	1029.3
348.15 K, 35000 kPa	791.5	822.4	853.4	884.2	915.2	946.2	976.1	1004.7	1032.7
348.15 K, 40000 kPa	795.5	826.4	857.3	888.1	918.9	949.9	979.7	1008.2	1036.1
348.15 K, 45000 kPa	799.5	830.3	861.1	891.8	922.6	953.4	983.2	1011.5	1039.4
348.15 K, 50000 kPa	803.2	834	864.7	895.4	926.1	956.9	986.5	1014.8	1042.5
348.15 K, 55000 kPa	806.8	837.6	868.3	898.9	929.5	960.2	989.8	1018	1045.7
348.15 K, 60000 kPa	810.1	840.9	871.4	902.1	932.6	963.3	992.7	1020.9	1048.5
358.15 K, 100 kPa	746	778	809.9	842	874.1	906.3	937.3	967	996.1
358.15 K, 1000 kPa	747.1	779.1	811	843.1	875.1	907.3	938.3	967.9	996.9
358.15 K, 5000 kPa	752.5	784.2	815.9	847.7	879.4	911.4	942	971.7	1000.6
358.15 K, 10000 kPa	757.8	790	821.5	853.1	884.7	916.4	947	976.2	1004.9
358.15 K, 15000 kPa	764.1	795.5	826.7	858.2	889.6	921.1	951.4	980.6	1009
358.15 K, 20000 kPa	769.4	800.6	831.8	863	894.2	925.6	955.8	984.7	1013
358.15 K, 25000 kPa	774.3	805.5	836.5	867.6	898.6	929.9	960	988.7	1016.9
358.15 K, 30000 kPa	779	810	841	871.8	902.9	934	963.9	992.6	1020.6
358.15 K, 35000 kPa	783.5	814.4	845.3	876.1	907	938	967.8	996.3	1024.2
358.15 K, 40000 kPa	787.7	818.6	849.4	880.1	910.9	941.8	971.5	999.9	1027.8
358.15 K, 45000 kPa	791.8	822.6	853.3	884	914.7	945.5	975.1	1003.4	1031.2
358.15 K, 50000 kPa	795.7	826.5	857.1	887.8	918.3	949	978.6	1006.8	1034.5
358.15 K, 55000 kPa	799.5	830.2	860.8	891.4	921.9	952.5	982	1010.1	1037.8
358.15 K, 60000 kPa	802.9	832.8	864.2	894.6	925.1	955.7	985	1013.1	1040.9
